Test results taken from ChEMBL document CHEMBL1687741, “Population pharmacokinetics of lumefantrine in pregnant women treated with artemether-lumefantrine for uncomplicated Plasmodium falciparum malaria” (Antimicrob Agents Chemother, 2009).

Tests used:
Type in all cases: ADME, organism-based
[1] = Cmax in capillary plasma of pregnant human patient with uncomplicated multidrug-resistant Plasmodium falciparum malaria at 120 mg, po administered as 4 tablets BID for 5 days coadministered with 20 mg artemether measured on 7 days by two-compartment population pharmacokinetic model; parameters: dose 120 mg, route oral; settings: female
[2] = Cmax in pregnant human patient with uncomplicated multidrug-resistant Plasmodium falciparum malaria at 120 mg, po administered as 4 tablets BID for 5 days coadministered with 20 mg artemether measured after 7 days by two-compartment population pharmacokinetic model; parameters: dose 120 mg, route oral; settings: female, in vivo
[3] = Cmax in pregnant human patient with uncomplicated multidrug-resistant Plasmodium falciparum malaria at 120 mg, po administered as 4 tablets BID for 4 days coadministered with 20 mg artemether measured after 7 days by two-compartment population pharmacokinetic model; parameters: dose 120 mg, route oral; settings: female, in vivo
[4] = Cmax in pregnant human patient with uncomplicated multidrug-resistant Plasmodium falciparum malaria at 120 mg, po administered as 4 tablets BID for 5 days coadministered with 20 mg artemether by two-compartment population pharmacokinetic model; parameters: dose 120 mg, route oral; settings: female, in vivo
[5] = Cmax in pregnant human patient with uncomplicated multidrug-resistant Plasmodium falciparum malaria at 120 mg, po administered as 4 tablets BID for 4 days coadministered with 20 mg artemether by two-compartment population pharmacokinetic model; parameters: dose 120 mg, route oral; settings: female, in vivo
[6] = Cmax in pregnant human patient with uncomplicated multidrug-resistant Plasmodium falciparum malaria at 120 mg, po administered as 4 tablets BID for 3 days coadministered with 20 mg artemether by two-compartment population pharmacokinetic model; parameters: dose 120 mg, route oral; settings: female, in vivo
[7] = Drug concentration in pregnant human patient with uncomplicated multidrug-resistant Plasmodium falciparum malaria at 120 mg, po administered as 4 tablets BID for 3 days coadministered with 20 mg artemether; settings: female, in vivo, read-out: Drug uptake
[8] = Drug concentration in pregnant human with uncomplicated multidrug-resistant Plasmodium falciparum malaria infection at 120 mg, po administered as 4 tablets BID for 3 days coadministered with 20 mg artemether; settings: female, in vivo, read-out: Drug uptake
[9] = Drug concentration in pregnant human patient with reappeared uncomplicated multidrug-resistant Plasmodium falciparum malaria infection at 120 mg, po administered as 4 tablets BID for 3 days coadministered with 20 mg artemether; settings: female, in vivo, read-out: Drug uptake
[10] = Drug concentration in pregnant human patient with uncomplicated multidrug-resistant Plasmodium falciparum malaria at 120 mg, po administered as 4 tablets BID for 3 days coadministered with 20 mg artemether measured after 7 days by two-compartment population pharmacokinetic model; settings: female, in vivo, read-out: Drug uptake
[11] = tested on: Homo sapiens; assay: AUC (0 to infinity) in pregnant human patient with uncomplicated multidrug-resistant Plasmodium falciparum malaria at 120 mg, po administered as 4 tablets BID for 3 days coadministered with 20 mg artemether by two-compartment population pharmacokinetic model; parameters: dose 120 mg, time infinity, route oral; settings: in vivo, 72 h
[12] = Terminal elimination half-life in pregnant human patient with uncomplicated multidrug-resistant Plasmodium falciparum malaria at 120 mg, po administered as 4 tablets BID for 3 days coadministered with 20 mg artemether by two-compartment population pharmacokinetic model; settings: female, in vivo, read-out: beta t1/2 (converted)
[13] = tested on: Homo sapiens; assay: Volume of distribution at steady state in pregnant human patient with uncomplicated multidrug-resistant Plasmodium falciparum malaria at 120 mg, po administered as 4 tablets BID for 3 days coadministered with 20 mg artemether by two-compartment population pharmacokinetic model; settings: in vivo, 72 h
[14] = tested on: Homo sapiens; assay: Absorption rate constant in pregnant human patient with uncomplicated multidrug-resistant Plasmodium falciparum malaria at 120 mg, po administered as 4 tablets BID for 3 days coadministered with 20 mg artemether by two-compartment population pharmacokinetic model; settings: in vivo, 72 h
[15] = tested on: Homo sapiens; assay: Apparent peripheral volume of distribution in pregnant human patient with uncomplicated multidrug-resistant Plasmodium falciparum malaria at 120 mg, po administered as 4 tablets BID for 3 days coadministered with 20 mg artemether by two-compartment population pharmacokinetic model; settings: in vivo, 72 h
[16] = tested on: Homo sapiens; assay: Intercompartmental clearance in pregnant human patient with uncomplicated multidrug-resistant Plasmodium falciparum malaria at 120 mg, po administered as 4 tablets BID for 3 days coadministered with 20 mg artemether by two-compartment population pharmacokinetic model; settings: in vivo, 72 h
[17] = tested on: Homo sapiens; assay: Apparent volume of distribution in pregnant human patient with uncomplicated multidrug-resistant Plasmodium falciparum malaria at 120 mg, po administered as 4 tablets BID for 3 days coadministered with 20 mg artemether by two-compartment population pharmacokinetic model; settings: in vivo, 72 h
[18] = tested on: Homo sapiens; assay: Clearance in pregnant human patient with uncomplicated multidrug-resistant Plasmodium falciparum malaria at 120 mg, po administered as 4 tablets BID for 3 days coadministered with 20 mg artemether by two-compartment population pharmacokinetic model; settings: in vivo, 72 h
[19] = Cmax in venous plasma of pregnant human patient with uncomplicated multidrug-resistant Plasmodium falciparum malaria at 120 mg, po administered as 4 tablets BID for 5 days coadministered with 20 mg artemether measured on 7 days by two-compartment population pharmacokinetic model; parameters: dose 120 mg, route oral; settings: female
[20] = tested on: Homo sapiens; assay: Tlag in pregnant human patient with uncomplicated multidrug-resistant Plasmodium falciparum malaria at 120 mg, po administered as 4 tablets BID for 3 days coadministered with 20 mg artemether measured after 7 days by two-compartment population pharmacokinetic model; settings: in vivo

## CCCCN(CCCC)CC(O)c1cc(Cl)cc2c1-c1ccc(Cl)cc1/C2=C/c1ccc(Cl)cc1 (stereo not given) [LUMEFANTRINE]
[1]
  Cmax: 433 ng/mL
[2]
  Cmax: 498 ng/mL
[3]
  Cmax: 314 ng/mL
[4]
  Cmax: 2430 ng/mL
[5]
  Cmax: 2480 ng/mL
[6]
  Cmax: 2080 ng/mL
[7]
  concentration at 72 h: 135 ng/mL
[8]
  concentration at 72 h: 136 ng/mL
[9]
  concentration at 72 h: 126 ng/mL
[10]
  concentration at 168 h: 391 ng/mL
[11]
  AUC: 472 µg·h/mL
[12]
  half-life: 79.2 h
[13]
  Vz: 181 L
[14]
  Ka: 0.0588 h⁻¹
[15]
  Vp/F: 160 L
[16]
  CL: 1.82 L/h
[17]
  Vz: 20.2 L
[18]
  CL: 6.11 L/h
[19]
  Cmax: 49 ng/mL
[20]
  Time: 1.67 h
